Data as given in US10517862B2, “Fused heterocyclic compound derivative and application thereof” (NHWA PHARMA. CORPORATION, priority 2015, dated 2019).

Legend:
Catalepsy assay in mice = conditions: both sexes, Kunming, mouse, in vivo, po, bar test at 30, 60, 90 min
Protocol: Healthy mice of Kunming breed (with half male and half female, (22±2) g) were provided by Qinglongshan Animal Cultivation Center, Nanjing.
Instruments: self-made bar-grabbing apparatus: stainless steel bar in mice box, which was 0.3 cm in diameter and […].
Corresponding solvent double-distilled water was administered intragastrically to the negative control group and the model group, corresponding positive drugs were administered intragastrically to the positive drug groups (a small amount of acetic acid was first added and then double-distilled water was added when dissolving), and corresponding dosages of compounds were administered intragastrically to the compound groups for each dosage, with the volume for intragastric administration as 0.1 ml/10 g. At 30 min, 60 min, 90 min after the intragastric administration, the two forepaws of the mice were gently placed on the bars (which were 20 cm in length, 0.3 cm in diameter, and 5.5 cm above the bench), and the hindpaws of the animals were placed on the bottom of the box. The durations of the mice to maintain the posture with the two forepaws on the bars were recorded, and 30 s of spasticity without moving was considered as the positive response. In the case the forepaws of the mice were not put down persistently, the observation was terminated at 60 s. The numbers of animals with positive response in each of the compound dosage groups were counted.

5HT2A receptor = 5HT2A receptor (Rattus norvegicus, UniProt P14842); assay: 5HT2A receptor binding assay ([3H]-Ketanserin, rat striatum membrane); conditions: for inhibition at 10 µM: read-out: 5HT2A Inhibition rate (%); for affinity with 5HT2A (in words): summary of in vitro assay
mice of Kunming breed = assay: Apomorphine induced clambering assay of mice; assay type: in vivo; conditions: Mus musculus; mice, po; apomorphine 1 mg/kg sc 1 hour after administration; read-out: Apomorphine induced clambering (ED50, po, mg/kg)
Protocol: Healthy mice of Kunming breed (KM) (male, with body weight of 18-22 g) were provided by Qinglongshan Animal Cultivation Center, Nanjing.
Apomorphine provided by Sigma Company was dissolved in 0.9% NaCl (containing 0.1% vitamin C) before use, and was freshly formulated before use.
Vitamin C, F20061113, was provided by Sinopharm Chemical Reagent Co. Ltd.
Sodium chloride injection, H32026305, was provided by Xuzhou No. 5 Pharmaceutical Factory Co. Ltd.
Instruments: self-made clambering cage, chronograph.
Procedures: apomorphine induced clambering assay of mice
After 5 min of adaptation, the behavior of the mice at 10-11, 20-21, and 30-31 min after the injection of apomorphine were observed and scored. Scoring criteria: the behavior of 4 paws on the floor was scored as 0; the behavior of 2 forepaws on the cage was scored as 1; and the behavior of 4 paws on the cage was scored as 2.

Chain of 5HT2A receptor (P14842 whole entry): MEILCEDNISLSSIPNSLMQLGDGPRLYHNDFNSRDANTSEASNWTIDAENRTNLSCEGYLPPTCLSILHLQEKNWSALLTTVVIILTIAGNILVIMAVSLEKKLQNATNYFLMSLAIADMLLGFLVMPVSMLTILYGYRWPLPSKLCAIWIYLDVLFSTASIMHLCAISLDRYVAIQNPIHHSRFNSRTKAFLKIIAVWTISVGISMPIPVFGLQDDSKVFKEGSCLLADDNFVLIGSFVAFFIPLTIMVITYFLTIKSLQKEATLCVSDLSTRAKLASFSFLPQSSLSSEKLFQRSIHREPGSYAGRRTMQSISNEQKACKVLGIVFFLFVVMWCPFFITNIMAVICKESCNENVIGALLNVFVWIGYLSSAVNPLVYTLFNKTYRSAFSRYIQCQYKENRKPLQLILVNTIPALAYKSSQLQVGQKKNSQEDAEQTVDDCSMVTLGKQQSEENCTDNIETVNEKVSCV

## O=C(CCN1CCC(c2noc3cc(F)ccc23)CC1)c1cc2c3c(c1)CCN3C(=O)CC2 [Compound 12]
Catalepsy assay in mice
  ED50: 8.45 mg/kg
5HT2A receptor
  inhibition at 10 µM: 94.4%
  affinity with 5HT2A (in words): high affinities
Mice of Kunming breed
  ED50: 0.076 mg/kg

## O=C(CCCN1CCC(c2noc3cc(F)ccc23)CC1)c1cc2c3c(c1)CCC(=O)N3CCC2 [Compound 5]
Catalepsy assay in mice
  ED50: > 200 mg/kg
5HT2A receptor
  inhibition at 10 µM: 99.5%
  affinity with 5HT2A (in words): high affinities
Mice of Kunming breed
  ED50: 1.31 mg/kg
